Results published in paper PMC9154192 (PLoS Biology, 2022).
In brackets after ≈: the same amount, converted by molar mass. Several values for one entry are separate records, joined by “and”; a condition that tells them apart may be missing. Equal values may be shown once. Read-outs that look alike come from different tables or passages of the source.

Columns and labels:
[1] = format: cell-based; details: positive control
M. tuberculosis H37Rv = experiment: microbe, parasite or virus in culture; format: cell-based, Mycobacterium tuberculosis; details: for MIC: Mycobacterium tuberculosis, H37RV, read-out: MIC; for SI (CC50/MIC): ratio of CC50 for L929 fibroblasts to MIC for strain H37Rv
M. tuberculosis H37Ra = experiment: microbe, parasite or virus in culture; format: cell-based, Mycobacterium tuberculosis; details: Mycobacterium tuberculosis, H37RA
in vitro = format: cell-based, murine; details: mouse
Method: A549 human pulmonary epithelial cells (KCLB 10185), human embryonic kidney (HEK) 293 cells (KCLB 21573), human THP-1 leukemia cells (KCLB 40202), human neuroblastoma SH-SY5Y cells (KCLB 22266), Murine Raw 264.7 macrophages (KCLB 40071), and L929 murine fibroblasts (KCLB 10001) were purchased from the KCLB (Seoul, Korea). Cytotoxicity testing was performed using the MTT assay and the WST-1 cell viability assay as previously described.

[2] = TA98, 1.0 μg/plate, presence of S9 mix
[3] = TA100, 2.0 μg/plate, presence of S9 mix
[4] = TA1535, 3.0 μg/plate, presence of S9 mix
[5] = TA1537, 3.0 μg/plate, presence of S9 mix
[6] = WP2uvrA (pKM101), 2.0 μg/plate, presence of S9 mix
[7] = TA98, 5.0 μg/plate, absence of S9 mix
[8] = TA1537, 80.0 μg/plate, absence of S9 mix
[9] = TA100, 1.5 μg/plate, absence of S9 mix
[10] = TA1535, 1.5 μg/plate, absence of S9 mix

Nc1ccc2cc3ccccc3cc2c1 [2-AA]
Individual revertant colony counts [1, 2]: 402 colonies per plate and 414 colonies per plate
Mean revertant colonies [1, 2]: 408 colonies per plate
Individual revertant colony counts [1, 3]: 555 colonies per plate and 578 colonies per plate
Mean revertant colonies [1, 3]: 567 colonies per plate
Individual revertant colony counts [1, 4]: 96 colonies per plate and 103 colonies per plate
Mean revertant colonies [1, 4]: 100 colonies per plate
Individual revertant colony counts [1, 5]: 193 colonies per plate and 184 colonies per plate
Mean revertant colonies [1, 5]: 189 colonies per plate
Individual revertant colony counts [1, 6]: 409 colonies per plate and 430 colonies per plate
Mean revertant colonies [1, 6]: 420 colonies per plate

O=[N+]([O-])c1ccc2c(c1)Cc1ccccc1-2 [2-NF]
Individual revertant colony counts [1, 7]: 705 colonies per plate and 649 colonies per plate
Mean revertant colonies [1, 7]: 677 colonies per plate

Nc1c2ccccc2nc2ccccc12 [9-AA]
Individual revertant colony counts [1, 8]: 539 colonies per plate and 571 colonies per plate
Mean revertant colonies [1, 8]: 555 colonies per plate

COC(=O)c1cc2ccc(O)cc2c2cc(OC)c(OC)cc12 [DPGA4]
MIC (M. tuberculosis H37Rv): > 100 µg/mL
SI (CC50/MIC) (M. tuberculosis H37Rv): <0.3
MIC (M. tuberculosis H37Ra): > 100 µg/mL
CC50 (in vitro; L929, MTT assay (Table S1)): 34.9 µg/mL (≈ 112 µM)
CC50 (in vitro; RAW, MTT assay (Table S1)): 37.5 µg/mL (≈ 120 µM)

COC(=O)c1cc2ccc(OCC(C)C)cc2c2cc(OC)c(OC)cc12 [DPGA5]
MIC (M. tuberculosis H37Rv): > 100 µg/mL
SI (CC50/MIC) (M. tuberculosis H37Rv): <0.4
MIC (M. tuberculosis H37Ra): > 100 µg/mL
CC50 (in vitro; L929, MTT assay (Table S1)): 40.3 µg/mL (≈ 109 µM)
CC50 (in vitro; RAW, MTT assay (Table S1)): > 100 µg/mL

COC(=O)c1cc2ccc(OC3CCCCC3)cc2c2cc(OC)c(OC)cc12 [DPGA6]
MIC (M. tuberculosis H37Rv): > 100 µg/mL
MIC (M. tuberculosis H37Ra): > 100 µg/mL
CC50 (in vitro; L929, MTT assay (Table S1)): > 100 µg/mL
CC50 (in vitro; RAW, MTT assay (Table S1)): > 100 µg/mL

CCOc1ccc2cc(C(=O)OC)c3cc(OC)c(OC)cc3c2c1 [DPGA7]
MIC (M. tuberculosis H37Rv): > 100 µg/mL
MIC (M. tuberculosis H37Ra): > 100 µg/mL
CC50 (in vitro; L929, MTT assay (Table S1)): > 100 µg/mL
CC50 (in vitro; RAW, MTT assay (Table S1)): > 100 µg/mL

CCCCOc1ccc2cc(C(=O)OC)c3cc(OC)c(OC)cc3c2c1 [DPGA10]
MIC (M. tuberculosis H37Rv): > 100 µg/mL
SI (CC50/MIC) (M. tuberculosis H37Rv): <0.2
MIC (M. tuberculosis H37Ra): > 100 µg/mL
CC50 (in vitro; L929, MTT assay (Table S1)): 21.5 µg/mL (≈ 58.4 µM)
CC50 (in vitro; RAW, MTT assay (Table S1)): > 100 µg/mL

CCCCOc1ccc2cc(CO)c3cc(OC)c(OC)cc3c2c1 [DPGA11]
MIC (M. tuberculosis H37Rv): > 100 µg/mL
SI (CC50/MIC) (M. tuberculosis H37Rv): <0.7
MIC (M. tuberculosis H37Ra): > 100 µg/mL
CC50 (in vitro; L929, MTT assay (Table S1)): 73.7 µg/mL (≈ 216 µM)
CC50 (in vitro; RAW, MTT assay (Table S1)): > 100 µg/mL

COC(=O)[C@H]1CCC(=O)N1Cc1cc2ccc(OC)cc2c2cc(OC)c(OC)cc12 [PP1R]
MIC (M. tuberculosis H37Rv): > 100 µg/mL
MIC (M. tuberculosis H37Ra): > 100 µg/mL

CCCCOc1ccc2cc(CN3C(=O)CC[C@@H]3C(=O)OC)c3cc(OC)c(OC)cc3c2c1 [PP2R]
MIC (M. tuberculosis H37Rv): > 100 µg/mL
MIC (M. tuberculosis H37Ra): > 100 µg/mL

COC(=O)[C@H]1CCC(=O)N1Cc1cc2ccc(OCc3ccccc3)cc2c2cc(OC)c(OC)cc12 [PP3R, Methyl (R)-1-{[3-(Benzyloxy)-6,7-dimethoxy-9-phenanthryl]methyl}-5-oxopyrrolidine-2-carboxylate]
MIC (M. tuberculosis H37Rv): > 100 µg/mL
MIC (M. tuberculosis H37Ra): > 100 µg/mL

[N-]=[N+]=[N-].[Na+] [SA]
Individual revertant colony counts [1, 9]: 734 colonies per plate and 732 colonies per plate
Mean revertant colonies [1, 9]: 733 colonies per plate
Individual revertant colony counts [1, 10]: 588 colonies per plate and 535 colonies per plate
Mean revertant colonies [1, 10]: 562 colonies per plate
